Measurements reported in US9776995B2, “Bicyclic sulfonamide compounds as sodium channel inhibitors” (AMGEN INC., priority 2013, dated 2017).

The molecules below were run against Nav 1.7 (Homo sapiens (Human), UniProt Q15858) (assay: in-vitro Nav 1.7 PX data). Conditions: PatchXpress (PX), in vitro.
Format: cell-based

Sequence of Nav 1.7 (Q15858 whole entry): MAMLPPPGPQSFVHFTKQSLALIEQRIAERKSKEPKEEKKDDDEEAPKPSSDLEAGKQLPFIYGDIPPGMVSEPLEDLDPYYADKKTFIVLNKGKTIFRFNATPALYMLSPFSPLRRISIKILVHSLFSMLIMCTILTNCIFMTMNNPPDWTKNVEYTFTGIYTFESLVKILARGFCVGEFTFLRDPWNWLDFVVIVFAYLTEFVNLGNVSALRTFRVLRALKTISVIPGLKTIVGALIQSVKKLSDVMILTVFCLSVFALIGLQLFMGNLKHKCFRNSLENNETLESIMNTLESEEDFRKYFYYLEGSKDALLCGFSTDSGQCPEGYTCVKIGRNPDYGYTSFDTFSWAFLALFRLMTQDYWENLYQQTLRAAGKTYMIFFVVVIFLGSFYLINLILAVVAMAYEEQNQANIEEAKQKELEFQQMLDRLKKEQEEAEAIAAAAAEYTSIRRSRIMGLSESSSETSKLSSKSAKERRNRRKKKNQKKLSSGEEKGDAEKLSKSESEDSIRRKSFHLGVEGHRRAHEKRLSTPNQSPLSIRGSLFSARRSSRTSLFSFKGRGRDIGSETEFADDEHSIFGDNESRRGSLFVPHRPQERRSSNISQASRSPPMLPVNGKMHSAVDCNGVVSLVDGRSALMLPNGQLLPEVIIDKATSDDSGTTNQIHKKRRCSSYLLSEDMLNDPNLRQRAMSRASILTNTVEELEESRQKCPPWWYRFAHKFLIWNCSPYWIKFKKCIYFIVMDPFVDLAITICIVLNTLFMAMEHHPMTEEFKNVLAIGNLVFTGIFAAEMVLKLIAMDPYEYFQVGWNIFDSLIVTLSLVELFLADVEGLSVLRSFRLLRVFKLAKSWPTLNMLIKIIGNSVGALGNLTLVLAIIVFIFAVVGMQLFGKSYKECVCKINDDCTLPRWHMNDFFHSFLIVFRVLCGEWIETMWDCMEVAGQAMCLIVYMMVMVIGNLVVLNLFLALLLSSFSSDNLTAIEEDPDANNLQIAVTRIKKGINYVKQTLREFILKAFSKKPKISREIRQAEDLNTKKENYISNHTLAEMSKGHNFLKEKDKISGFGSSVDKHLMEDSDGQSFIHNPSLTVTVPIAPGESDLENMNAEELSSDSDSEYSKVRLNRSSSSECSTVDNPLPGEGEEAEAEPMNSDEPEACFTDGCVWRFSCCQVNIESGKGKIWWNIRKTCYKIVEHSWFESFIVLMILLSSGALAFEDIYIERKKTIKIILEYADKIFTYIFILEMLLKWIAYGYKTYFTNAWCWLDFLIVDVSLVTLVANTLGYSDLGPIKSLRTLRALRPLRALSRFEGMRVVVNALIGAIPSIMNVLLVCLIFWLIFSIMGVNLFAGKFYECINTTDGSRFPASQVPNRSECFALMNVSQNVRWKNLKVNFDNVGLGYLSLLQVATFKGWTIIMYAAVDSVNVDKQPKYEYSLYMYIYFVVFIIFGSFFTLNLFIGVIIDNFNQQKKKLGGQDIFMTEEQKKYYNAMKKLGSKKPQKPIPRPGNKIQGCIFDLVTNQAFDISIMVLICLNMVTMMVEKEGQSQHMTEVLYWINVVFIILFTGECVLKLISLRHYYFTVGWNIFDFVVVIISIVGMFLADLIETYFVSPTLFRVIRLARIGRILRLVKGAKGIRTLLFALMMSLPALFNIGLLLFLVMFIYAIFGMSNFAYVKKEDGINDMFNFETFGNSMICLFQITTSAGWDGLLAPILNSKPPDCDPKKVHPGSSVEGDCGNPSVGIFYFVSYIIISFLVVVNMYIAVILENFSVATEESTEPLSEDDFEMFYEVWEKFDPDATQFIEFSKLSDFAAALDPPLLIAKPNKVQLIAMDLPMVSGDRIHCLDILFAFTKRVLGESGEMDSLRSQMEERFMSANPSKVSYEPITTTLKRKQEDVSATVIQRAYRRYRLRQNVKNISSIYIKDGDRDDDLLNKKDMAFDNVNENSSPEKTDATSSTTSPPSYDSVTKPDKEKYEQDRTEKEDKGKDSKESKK

Row | IC50 [nM] | Compound
1 | 67.7 | COc1cc(-c2cc(F)cnc2OC)c(F)cc1-c1nccc2cc(S(=O)(=O)Nc3ccon3)ccc12 [Example 93, 1-(5-fluoro-4-(5-fluoro-2-methoxy-3-pyridinyl)-2-methoxyphenyl)-N-3-isoxazolyl-6-isoquinolinesulfonamide]
2 | 50.6 | COc1cc(-c2ccc(F)c(C)c2)c(Cl)cc1-c1nccc2cc(S(=O)(=O)Nc3ccon3)ccc12 [Example 94, 1-(2-chloro-4′-fluoro-5-methoxy-3′-methyl-4-biphenylyl)-N-3-isoxazolyl-6-isoquinolinesulfonamide]
3 | 69 | COc1cc(-c2ccc(Cl)c(F)c2)c(F)cc1-c1nccc2cc(S(=O)(=O)Nc3ccon3)ccc12 [Example 95, 1-(4′-chloro-2,3′-difluoro-5-methoxy-4-biphenylyl)-N-3-isoxazolyl-6-isoquinolinesulfonamide]
4 | 73.8 | COc1cc(-c2ccc(C)c(Cl)c2)c(Cl)cc1-c1nccc2cc(S(=O)(=O)Nc3ccon3)ccc12 [Example 96, 1-(2,3′-dichloro-5-methoxy-4′-methyl-4-biphenylyl)-N-3-isoxazolyl-6-isoquinolinesulfonamide]
5 | 111 | COc1cc(-c2cccc(Cl)c2)c(F)cc1-c1nccc2cc(S(=O)(=O)Nc3ncccn3)ccc12 [Example 97, 1-(3′-chloro-2-fluoro-5-methoxy-4-biphenylyl)-N-2-pyrimidinyl-6-isoquinolinesulfonamide]
6 | 34.5 | COc1cc(-c2cc(F)cc(F)c2)c(F)cc1-c1nccc2cc(S(=O)(=O)Nc3ccon3)ccc12 [Example 98, N-3-isoxazolyl-1-(2,3′,5′-trifluoro-5-methoxy-4-biphenylyl)-6-isoquinolinesulfonamide]
7 | 66.3 | COc1cc(-c2cc(F)cnc2OC)c(F)cc1-c1nccc2cc(S(=O)(=O)Nc3ccsn3)ccc12 [Example 99, 1-(5-fluoro-4-(5-fluoro-2-methoxy-3-pyridinyl)-2-methoxyphenyl)-N-3-isothiazolyl-6-isoquinolinesulfonamide]

Same assay, conditions: in-vitro Nav 1.7 PX data

Row | IC50 [nM] | Compound
8 | 15300 | COc1cc(C#N)c(-c2cc(F)cc(F)c2)cc1-c1nccc2cc(S(=O)(=O)Nc3ccon3)ccc12 [Example 139, 1-(6-cyano-3′,5′-difluoro-4-methoxy-3-biphenylyl)-N-3-isoxazolyl-6-isoquinolinesulfonamide]
9 | 652 | COc1cc(-c2cc(F)cc(F)c2)ccc1-c1nccc2cc(S(=O)(=O)Nc3cnccn3)ccc12 [Example 140, 1-(3′,5′-difluoro-3-methoxy-4-biphenylyl)-N-2-pyrazinyl-6-isoquinolinesulfonamide]
10 | 1010 | COc1cc(-c2cc(F)cc(F)c2)ccc1-c1nccc2cc(S(=O)(=O)Nc3ccccn3)ccc12 [Example 141, 1-(3′,5′-difluoro-3-methoxy-4-biphenylyl)-N-2-pyridinyl-6-isoquinolinesulfonamide]
11 | 3220 | COc1cc(-c2cc(F)cc(F)c2)ccc1-c1nccc2cc(S(=O)(=O)Nc3ncc(C(F)(F)F)o3)ccc12 [Example 143, 1-(3′,5′-difluoro-3-methoxy-4-biphenylyl)-N-(5-(trifluoromethyl)-1,3-oxazol-2-yl)-6-isoquinolinesulfonamide]
12 | 9110 | COc1cc(C#N)c(-c2cc(F)cc(F)c2)cc1-c1nccc2cc(S(=O)(=O)Nc3ccncn3)ccc12 [Example 145, 1-(6-cyano-3′,5′-difluoro-4-methoxy-3-biphenylyl)-N-4-pyrimidinyl-6-isoquinolinesulfonamide]
13 | 28.6 | COc1cc(-c2cccc(C(F)(F)F)c2)c(C#N)cc1-c1nccc2cc(S(=O)(=O)Nc3ccon3)ccc12 [Example 148, 1-(2-cyano-5-methoxy-3′-(trifluoromethyl)-4-biphenylyl)-N-3-isoxazolyl-6-isoquinolinesulfonamide]
14 | 1460 | COc1cc(NS(=O)(=O)c2ccc3c(-c4ccc(-c5cc(F)cc(F)c5)cc4OC)nccc3c2)no1 [Example 149, 1-(3′,5′-difluoro-3-methoxy-4-biphenylyl)-N-(5-methoxy-3-isoxazolyl)-6-isoquinolinesulfonamide]
15 | 6000 | COc1cc(C#N)c(-c2cc(F)cc(F)c2)cc1-c1nccc2cc(S(=O)(=O)Nc3nncs3)ccc12 [Example 150, 1-(6-cyano-3′,5′-difluoro-4-methoxy-3-biphenylyl)-N-1,3,4-thiadiazol-2-yl-6-isoquinolinesulfonamide]
16 | 2440 | COc1ncc(-c2ccccc2)cc1-c1nccc2cc(S(=O)(=O)Nc3ccncn3)ccc12 [Example 152, 1-(2-methoxy-5-phenyl-3-pyridinyl)-N-4-pyrimidinyl-6-isoquinolinesulfonamide]
17 | 7680 | Cc1ccc(OCC2CC2)cc1-c1nccc2cc(S(=O)(=O)Nc3ccncn3)ccc12 [Example 153, 1-(5-(cyclopropylmethoxy)-2-methylphenyl)-N-4-pyrimidinyl-6-isoquinolinesulfonamide]
18 | 794 | COc1cc(-c2cccnc2OC)ccc1-c1nccc2cc(S(=O)(=O)Nc3nncs3)ccc12 [Example 166, 1-(2-methoxy-4-(2-methoxy-3-pyridinyl)phenyl)-N-1,3,4-thiadiazol-2-yl-6-isoquinolinesulfonamide]
19 | 2720 | COc1cc(-c2nccc3cc(S(=O)(=O)Nc4ccon4)ccc23)c(C)cc1-c1cccc(F)c1 [Example 167, 1-(3′-fluoro-2-methoxy-5-methyl-4-biphenylyl)-N-3-isoxazolyl-6-isoquinolinesulfonamide]
20 | 8540 | COc1ccc(F)cc1-c1cc(C)c(-c2ncnc3cc(S(=O)(=O)Nc4ccon4)ccc23)cc1OC [Example 168, 4-(5′-fluoro-2,2′-dimethoxy-5-methyl-4-biphenylyl)-N-3-isoxazolyl-7-quinazolinesulfonamide]
21 | 104 | COc1cc(C(F)F)c(Cl)cc1-c1nccc2cc(S(=O)(=O)Nc3ccon3)ccc12 [Example 169, 1-(5-chloro-4-(difluoromethyl)-2-methoxyphenyl)-N-3-isoxazolyl-6-isoquinolinesulfonamide]

Same assay, conditions: in-vitro PX data

Row | IC50 [nM] | Compound
22 | 73.9 | COc1cc(-c2ccc(Cl)c(F)c2)c(Cl)cc1-c1nccc2cc(S(=O)(=O)Nc3ccon3)ccc12 [Example 101, 1-(2,4′-dichloro-3′-fluoro-5-methoxy-4-biphenylyl)-N-3-isoxazolyl-6-isoquinolinesulfonamide]
23 | 22.9 | COc1cc(-c2cccc(C(F)(F)F)c2)c(F)cc1-c1ncnc2cc(S(=O)(=O)Nc3ccon3)ccc12 [Example 102, 4-(2-fluoro-5-methoxy-3′-(trifluoromethyl)-4-biphenylyl)-N-3-isoxazolyl-7-quinazolinesulfonamide]
24 | 24 | COc1cc(-c2ccc(Cl)c(C)c2)c(F)cc1-c1ncnc2cc(S(=O)(=O)Nc3ccon3)ccc12 [Example 103, 4-(4′-chloro-2-fluoro-5-methoxy-3′-methyl-4-biphenylyl)-N-3-isoxazolyl-7-quinazolinesulfonamide]
25 | 8.4 | COc1cc(-c2cccc(Cl)c2)c(F)cc1-c1ncnc2cc(S(=O)(=O)Nc3ccon3)ccc12 [Example 104, 4-(3′-chloro-2-fluoro-5-methoxy-4-biphenylyl)-N-3-isoxazolyl-7-quinazolinesulfonamide]
26 | 29.3 | COc1cc(-c2cc(F)cnc2OC)c(Cl)cc1-c1nccc2cc(S(=O)(=O)Nc3ccon3)ccc12 [Example 105, 1-(5-chloro-4-(5-fluoro-2-methoxy-3-pyridinyl)-2-methoxyphenyl)-N-3-isoxazolyl-6-isoquinolinesulfonamide]
27 | 241 | COc1cc(-c2cccc(F)c2)c(C#N)cc1-c1nccc2cc(S(=O)(=O)Nc3ncccn3)ccc12 [Example 109, 1-(2-cyano-3′-fluoro-5-methoxy-4-biphenylyl)-N-2-pyrimidinyl-6-isoquinolinesulfonamide]
28 | 108 | COc1cc(Br)c(Cl)cc1-c1nccc2cc(S(=O)(=O)Nc3ccon3)ccc12 [Example 117, 1-(4-bromo-5-chloro-2-methoxyphenyl)-N-3-isoxazolyl-6-isoquinolinesulfonamide]
29 | 73.6 | COc1cc(-c2ccc(Cl)c(C)c2)c(Cl)cc1-c1nccc2cc(S(=O)(=O)Nc3ccon3)ccc12 [Example 119, 1-(2,4′-dichloro-5-methoxy-3′-methyl-4-biphenylyl)-N-3-isoxazolyl-6-isoquinolinesulfonamide]
30 | 4190 | COc1cc(-c2cc(F)cc(F)c2)ccc1-c1nccc2cc(S(=O)(=O)Nc3cc(C)on3)ccc12 [Example 126, 1-(3′,5′-difluoro-3-methoxy-4-biphenylyl)-N-(5-methyl-3-isoxazolyl)-6-isoquinolinesulfonamide]
31 | 3510 | COc1cc(-c2cc(F)cc(F)c2)ccc1-c1nccc2cc(S(=O)(=O)Nc3ccno3)ccc12 [Example 128, 1-(3′,5′-difluoro-3-methoxy-4-biphenylyl)-N-5-isoxazolyl-6-isoquinolinesulfonamide]
32 | 1630 | COc1cc(-c2cc(F)cc(F)c2)ccc1-c1nccc2cc(S(=O)(=O)Nc3cncc(C)n3)ccc12 [Example 131, 1-(3′,5′-difluoro-3-methoxy-4-biphenylyl)-N-(6-methyl-2-pyrazinyl)-6-isoquinolinesulfonamide]
33 | 695 | COc1cc(-c2cc(F)cc(F)c2)ccc1-c1nccc2cc(S(=O)(=O)Nc3ncc(C#N)s3)ccc12 [Example 132, N-(5-cyano-1,3-thiazol-2-yl)-1-(3′,5′-difluoro-3-methoxy-4-biphenylyl)-6-isoquinolinesulfonamide]
34 | 1560 | COc1cc(-c2cc(F)cc(F)c2)ccc1-c1nccc2cc(S(=O)(=O)Nc3nnc(C)s3)ccc12 [Example 133, 1-(3′,5′-difluoro-3-methoxy-4-biphenylyl)-N-(5-methyl-1,3,4-thiadiazol-2-yl)-6-isoquinolinesulfonamide]
35 | 1280 | COc1nsc(NS(=O)(=O)c2ccc3c(-c4ccc(-c5cc(F)cc(F)c5)cc4OC)nccc3c2)n1 [Example 134, 1-(3′,5′-difluoro-3-methoxy-4-biphenylyl)-N-(3-methoxy-1,2,4-thiadiazol-5-yl)-6-isoquinolinesulfonamide]
36 | 11200 | COc1cc(-c2cc(F)cc(F)c2)ccc1-c1nccc2cc(S(=O)(=O)NC(C)=O)ccc12 [Example 136, N-((1-(3′,5′-difluoro-3-methoxy-4-biphenylyl)-6-isoquinolinyl)sulfonyl)acetamide]
